Test results taken from paper PMC12530842, “Potent, Selective, and Drug‐Like G Protein‐Coupled Receptor Kinase 5 and 6 Inhibitors: Design, Synthesis, and X‐Ray Structural Studies” (Chemmedchem, 2025).
Entries after “also recorded” stand apart in the source; their conditions may differ. Read-outs that look alike come from different tables or passages of the source.

Key:
GRK2 [1] = target: T1, GRK2 (Homo sapiens, UniProt P25098); assay: GRK2 kinase inhibition assay, phosphorylation of tubulin ([γ-32P]-ATP); format: biochemical; conditions: for IC50: phosphorylation of the soluble substrate tubulin, ± standard deviation from 3 to 4 independent experiments
T1 construct: made in house
T1 sequence (P25098 1-689): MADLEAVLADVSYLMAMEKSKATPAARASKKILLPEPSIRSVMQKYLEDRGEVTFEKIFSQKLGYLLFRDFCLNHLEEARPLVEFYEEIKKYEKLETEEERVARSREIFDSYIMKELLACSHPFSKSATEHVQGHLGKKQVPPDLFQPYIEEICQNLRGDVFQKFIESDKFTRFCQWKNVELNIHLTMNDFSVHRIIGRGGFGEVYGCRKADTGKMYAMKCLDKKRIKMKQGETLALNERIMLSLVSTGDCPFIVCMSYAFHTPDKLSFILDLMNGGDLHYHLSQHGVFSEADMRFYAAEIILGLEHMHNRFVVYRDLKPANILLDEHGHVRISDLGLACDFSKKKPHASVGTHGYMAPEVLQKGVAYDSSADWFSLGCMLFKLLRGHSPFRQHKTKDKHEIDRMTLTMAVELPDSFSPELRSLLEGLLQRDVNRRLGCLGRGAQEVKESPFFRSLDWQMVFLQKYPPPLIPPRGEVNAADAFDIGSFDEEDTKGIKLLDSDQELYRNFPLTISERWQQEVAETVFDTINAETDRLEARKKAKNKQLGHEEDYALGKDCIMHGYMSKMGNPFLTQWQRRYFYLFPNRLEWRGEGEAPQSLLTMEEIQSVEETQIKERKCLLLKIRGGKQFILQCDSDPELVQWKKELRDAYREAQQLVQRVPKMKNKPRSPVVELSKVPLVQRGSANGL
Method: (§1) The inhibitory potency of synthetic compounds containing the N‐heterocyclic amide functionalities was evaluated against human GRK2, GRK5 and GRK6 using our in vitro assays‐, as reported previously.^[ [35], [37] ^] […] We then investigated the effect of (R)‐ and (S)‐Boc pyrrolidine carboxamide derivatives. […] These improvements of GRK5 IC50 values over their Boc‐derivatives (6c and 6d) indicated the bulky Boc group may not be able to fit as well in the catalytic site of these GRKs. On the other hand, sterically less demanding acetamide derivatives 6e and 6f were well accommodated consistent with their very good activity against GRK5, GRK6, and GRK2, but only with marginal selectivity against GRK2. […] We also examined the effect of 3(S)‐ and 3(R)‐Boc‐pyrrolidine derivatives.
(§2) Protein expression and purification.
(§3) Human GR K5 (residues 1- 590) w ild- type and D 311N mutant w ere expressed in E. co li Rosetta (D E3) and purified v ia nickel-nitrilotriacetic acid affinity chromatography, followed by tandem columns consisting of a HiTrap Q HP anion exchange chromatography column and a HiTrap SP HP cation exchange chromatography column, and finished by Superdex 200 Increase size -exclusion chromatography, as described previously. Human GRK6 (with T10A and mutations that eliminate palmitoylation sites) was expressed in Sf9 insect cells [ 2] and was purified w ith the same protocol for GR K5 [1]. Human GRK2 w as purified as described previously.
(§4) Kinase inhibition Assays.
(§5) Inhibit ion assays were conducted in a reaction mixture containing 20 mM H EPES pH 7. 0, 2 mM MgC l2, and 0.025% n- dodecyl-β-D-maltoside. Prior to reaction initiation, GR K5 or GR K6 at 50 nM was mixed w ith porcine brain tubulin ( PurSolutions) at a concentration of 500 nM. The assay w as started w ith a 30- second incubation of inhibitors, followed by the add it ion of 5 μ M ATP supplemented w ith radioactive [γ-32P]-AT P a t 60 C i/m mol (PerkinElm er Life Sciences). Re actions pro ceeded for 5 m inut es at ro o m te mpera ture a nd were terminated by adding 4X SDS loading buffer. T he reaction mixtures were then s eparated via SDS - PAG E, dried, and exposed using a phosphor imaging screen. Quantification was performed using a Personal Molecular Imager and Quantity One 1- D Analysis Software. Analogous inhibition assays were conducted on p urified GR K2 wit h a t ub ulin conce ntrat ion of 1 μ M. Data ana lysis was perf orme d usin g Graph Pa d Pr ism, and IC50 values wer e calculated based on three- parameter dose- dependent curves (with a Hill coefficient fixed at 1) plotting phosphate transfer against inhibitor concentration. At least three replicates were conducted to determine the mean and standard deviation of IC50 values as published previously . […]
(§6) (6) The final models w ere validated with MolProbity prior to depos ition along with structure factors in the Protein Data Bank. Atomic figures were created with Py mol (7). Cr ystallographic statistics are reported in Supplemental Table 1. Coordinates for inh ib itor 6t (GRL-098- 22) w ere deposited in the Protein Data Bank, with accession code 9BR K.
(§7) 1. Y. Chen, A. Sonawane, R. Manda, R. K. G adi, J. J. G. Tesmer, A. K. Ghosh. Development of a new class of potent and highly select ive G protein- coupled r eceptor kinase 5 inhibitors and structural insight from crystal structures of inhibitor complexes. Eur. J. Med. Chem. 2024, 264, 115931.
(§8) 2. D. T. Lodowski, V. M. T esmer, J. L. Benovic, J. J. Tesmer. The structure of G protein- coupled receptor kinase (GRK)-6 defines a second lineage of GRKs. J. Bio l. C he m. 2006, 281,16785- 16793.

GRK5 = target: T2, GRK5 (Homo sapiens, UniProt P34947); assay: GRK5 kinase inhibition assay, phosphorylation of tubulin ([γ-32P]-ATP); format: biochemical; conditions: for Selectivity GRK2/GRK5: fold selectivity for GRK5 over GRK2; for IC50: phosphorylation of the soluble substrate tubulin, ± standard deviation from 3 to 4 independent experiments
T2 construct: Human GR K5 (residues 1- 590) w ild- type and D 311N mutant w ere expressed in E. co li Rosetta; His tag (inferred from nickel-NTA purification); made in house; host or cells: E. coli Rosetta (DE3)
Method: as §1, §2, §3, §4, §5, §6, §7, §8

GRK6 = target: T3, GRK6 (Homo sapiens, UniProt P43250, C561S/C562S/C565S/T10A); assay: GRK6 kinase inhibition assay, phosphorylation of tubulin ([γ-32P]-ATP); format: biochemical; conditions: for Selectivity GRK5/GRK6: fold selectivity for GRK6 over GRK5; for IC50: phosphorylation of the soluble substrate tubulin, ± standard deviation from 3 to 4 independent experiments
T3 construct: His tag (inferred: purified by the GRK5 protocol, which starts with nickel-NTA); made in house; host or cells: Sf9 insect cells
Method: as §1, §2, §3, §4, §5, §6, §7, §8

GRK2 [2] = target: T1, GRK2; conditions: earlier work; cited from earlier work

T2 sequence (P34947 whole entry, the tested form may be a part): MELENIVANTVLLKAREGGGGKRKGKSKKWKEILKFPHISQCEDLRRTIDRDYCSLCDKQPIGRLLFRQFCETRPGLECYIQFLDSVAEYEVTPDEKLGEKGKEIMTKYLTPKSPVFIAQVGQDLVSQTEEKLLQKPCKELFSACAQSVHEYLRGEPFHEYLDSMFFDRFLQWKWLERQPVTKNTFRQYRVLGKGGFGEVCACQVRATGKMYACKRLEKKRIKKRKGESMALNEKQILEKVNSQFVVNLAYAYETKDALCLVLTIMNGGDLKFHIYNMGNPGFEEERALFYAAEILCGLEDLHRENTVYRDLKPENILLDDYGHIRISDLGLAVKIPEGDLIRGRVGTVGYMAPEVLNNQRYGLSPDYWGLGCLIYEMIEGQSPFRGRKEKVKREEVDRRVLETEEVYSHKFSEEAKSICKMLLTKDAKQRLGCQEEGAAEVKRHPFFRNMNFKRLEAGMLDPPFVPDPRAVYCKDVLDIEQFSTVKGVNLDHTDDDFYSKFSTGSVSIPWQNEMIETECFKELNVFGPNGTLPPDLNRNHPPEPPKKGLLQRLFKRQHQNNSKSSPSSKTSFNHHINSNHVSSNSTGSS
T3 sequence (P43250 whole entry T10A/C561S/C562S/C565S): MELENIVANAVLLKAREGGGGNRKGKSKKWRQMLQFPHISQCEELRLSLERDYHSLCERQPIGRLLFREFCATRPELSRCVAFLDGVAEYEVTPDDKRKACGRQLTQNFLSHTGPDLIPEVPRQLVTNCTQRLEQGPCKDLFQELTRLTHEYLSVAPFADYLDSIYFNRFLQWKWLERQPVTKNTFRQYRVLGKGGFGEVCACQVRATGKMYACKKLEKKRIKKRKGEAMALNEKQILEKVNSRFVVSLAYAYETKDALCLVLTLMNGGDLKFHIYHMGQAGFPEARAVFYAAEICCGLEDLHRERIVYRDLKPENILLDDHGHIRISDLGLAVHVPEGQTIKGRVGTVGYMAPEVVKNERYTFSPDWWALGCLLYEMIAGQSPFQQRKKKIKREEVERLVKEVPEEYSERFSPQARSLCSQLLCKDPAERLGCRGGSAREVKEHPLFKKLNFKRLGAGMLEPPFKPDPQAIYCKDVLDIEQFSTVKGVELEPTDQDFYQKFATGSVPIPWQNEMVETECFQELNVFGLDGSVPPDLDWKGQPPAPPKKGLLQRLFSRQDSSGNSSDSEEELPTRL

SMILES	IC50 (GRK2 [1]) [µM]	Selectivity GRK2/GRK5 (GRK5) [fold]	IC50 (GRK5) [µM]	Selectivity GRK5/GRK6 (GRK6) [fold]	IC50 (GRK6) [µM]	activity against GRK2 (in words) (GRK2 [1])	fold enhanced GRK5 inhibitory activity (GRK5; over the (R)-Boc derivative 6c)	IC50 (GRK2 [2]) [µM]	GRK5 IC50 (in words) (GRK5)	GRK6 IC50 (in words) (GRK6)
Cc1[nH]c(/C=C2\C(=O)Nc3ccc(C(=O)N[C@H](C)c4ccc(F)cc4)cc32)c(C)c1NC(=O)CCl [compound 1]								1.2		
Cc1[nH]c(C=C2C(=O)Nc3ccc(C(=O)NC(C)c4ccc(F)cc4)cc32)c(C)c1NC(=O)C1C=CCN1C(=O)OC(C)(C)C [6i, Tert‐Butyl(S)‐2‐((5‐(((Z)‐5‐(((R)‐1‐(4‐Fluorophenyl)Ethyl)Carbamoyl)‐2‐Oxoindolin‐3‐yl‐ Idene)Methyl)‐2,4‐Dimethyl‐1H‐Pyrrol‐3‐Yl)Carbamoyl)‐2,5‐Dihydro‐1H‐Pyrrole‐1‐Carboxylate]	120 ± 50	130	0.92 ± 0.5	2	0.5 ± 0.2	little to no activity			sub‐micromolar; also recorded: low micromolar range	sub‐micromolar; also recorded: low micromolar range
Cc1[nH]c(/C=C2\C(=O)Nc3ccc(C(=O)N[C@H](C)c4ccc(F)cc4)cc32)c(C)c1NC(=O)[C@@H]1CNCCN1 [6v, (Z)‐3‐((3,5‐Dimethyl‐4‐((S)‐Piperazine‐2‐Carboxamido)‐1H‐Pyrrol‐2‐Yl)Methylene)‐N‐((R)‐1‐(4‐Fluorophenyl)Ethyl)‐2‐Oxoindoline‐5‐Carboxamide]	0.19 ± 0.1	10	0.016 ± 0.0005	1	0.026 ± 0.02					
Cc1[nH]c(/C=C2\C(=O)Nc3ccc(C(=O)N[C@H](C)c4ccc(F)cc4)cc32)c(C)c1NC(=O)[C@H]1CN(C(=O)OC(C)(C)C)CCN1 [6s, Tert‐Butyl(R)‐3‐((5‐(((Z)‐5‐(((R)‐1‐(4‐Fluorophenyl)Ethyl)Carbamoyl)‐2‐Oxoindolin‐3‐Ylidene)Methyl)‐2,4‐Dimethyl‐1H‐Pyrrol‐3‐Yl)Carbamoyl)Piperazine‐1‐Carboxylate]	35 ± 9.4	430	0.081 ± 0.01	1	0.06 ± 0.02					
Cc1[nH]c(/C=C2\C(=O)Nc3ccc(C(=O)N[C@H](C)c4ccc(F)cc4)cc32)c(C)c1NC(=O)[C@@H]1CN(C(=O)OC(C)(C)C)CCN1 [6t, Tert‐Butyl(S)‐3‐((5‐(((Z)‐5‐(((R)‐1‐(4‐Fluorophenyl)Ethyl)Carbamoyl)‐2‐Oxoindolin‐3‐Ylidene)Methyl)‐2,4‐Dimethyl‐1H‐Pyrrol‐3‐Yl)Carbamoyl)Piperazine‐1‐Carboxylate]	> 1000	>1600	0.6 ± 0.1	7	0.09					

Second part, led by results:

IC50 (GRK2 [1]) [µM]	Selectivity GRK2/GRK5 (GRK5) [fold]	IC50 (GRK5) [µM]	Selectivity GRK5/GRK6 (GRK6) [fold]	IC50 (GRK6) [µM]	activity against GRK2 (in words) (GRK2 [1])	fold enhanced GRK5 inhibitory activity (GRK5; over the (R)-Boc derivative 6c)	SMILES	IC50 (GRK2 [2]) [µM]	GRK5 IC50 (in words) (GRK5)	GRK6 IC50 (in words) (GRK6)
0.11 ± 0.02	4	0.03 ± 0.02	2	0.016 ± 0.003			Cc1[nH]c(/C=C2\C(=O)Nc3ccc(C(=O)N[C@H](C)c4ccc(F)cc4)cc32)c(C)c1NC(=O)[C@H]1CCCNC1 [6q, (Z)‐3‐((3,5‐Dimethyl‐4‐((S)‐Piperidine‐3‐Carboxamido)‐1H‐Pyrrol‐2‐Yl)Methylene)‐N‐((R)‐1‐(4‐Fluorophenyl)Ethyl)‐2‐Oxoindoline‐5‐Carboxamide]			
0.32 ± 0.09	8	0.04 ± 0.006	1	0.06 ± 0.02			CC(=O)N1CCC[C@@H]1C(=O)Nc1c(C)[nH]c(/C=C2\C(=O)Nc3ccc(C(=O)N[C@H](C)c4ccc(F)cc4)cc32)c1C [6e, (Z)‐3‐((4‐((R)‐1‐Acetylpyrrolidine‐2‐Carboxamido)‐3,5‐Dimethyl‐1H‐Pyrrol‐2‐Yl)Methylene)‐N‐((R)‐1‐(4‐Fluorophenyl)Ethyl)‐2‐Oxoindoline‐5‐Carboxamide]			
0.08 ± 0.01	1	0.09 ± 0.04	3	0.034 ± 0.01			Cc1[nH]c(/C=C2\C(=O)Nc3ccc(C(=O)N[C@H](C)c4ccc(F)cc4)cc32)c(C)c1NC(=O)[C@@H]1CCCN1 [6h, (Z)‐3‐((3,5‐Dimethyl‐4‐((S)‐pyrrolidine‐2‐carboxamido)‐1H‐pyrrol‐2‐yl)methylene)‐N‐((R)‐1‐(4‐fluorophenyl)ethyl)‐2‐oxoindoline‐5‐carboxamide]			
0.9 ± 0.3	15	0.06 ± 0.02	2	0.031 ± 0.02			CC(=O)N1CCCC1C(=O)Nc1c(C)[nH]c(C=C2C(=O)Nc3ccc(C(=O)NC(C)c4ccc(F)cc4)cc32)c1C [6f, ((Z)‐3‐((4‐((S)‐1‐Acetylpyrrolidine‐2‐Carboxamido)‐3,5‐Dimethyl‐1H‐Pyrrol‐2‐Yl)Methylene)‐N‐((R)‐1‐(4‐Fluorophenyl)Ethyl)‐2‐Oxoindoline‐5‐Carboxamide]			
> 1000	>2000	0.44 ± 0.16		9.9 ± 2		over 100 fold	Cc1[nH]c(/C=C2\C(=O)Nc3ccc(C(=O)N[C@H](C)c4ccc(F)cc4)cc32)c(C)c1NC(=O)[C@@H]1CCCN1C(=O)OC(C)(C)C [6d, Tert‐Butyl(S)‐2‐((5‐(((Z)‐5‐(((R)‐1‐(4‐Fluorophenyl)Ethyl)Carbamoyl)‐2‐Oxoindolin‐3‐Ylidene)Methyl)‐2,4‐Dimethyl‐1H‐Pyrrol‐3‐Yl)Carbamoyl)Pyrrolidine‐1‐Carboxylate]			
> 1000	>1000	1 ± 0.6	1	0.88 ± 0.05			Cc1[nH]c(/C=C2\C(=O)Nc3ccc(C(=O)N[C@H](C)c4ccc(F)cc4)cc32)c(C)c1NC(=O)[C@H]1CCN(C(=O)OC(C)(C)C)C1 [6l, Tert‐Butyl(S)‐3‐((5‐(((Z)‐5‐(((R)‐1‐(4‐Fluorophenyl)Ethyl)Carbamoyl)‐2‐Oxoindolin‐3‐Ylidene)Methyl)‐2,4‐Dimethyl‐1H‐Pyrrol‐3‐Yl)Carbamoyl)Pyrrolidine‐1‐Carboxylate]			
0.62 ± 0.3	20	0.03 ± 0.002	1	0.06 ± 0.02			Cc1[nH]c(/C=C2\C(=O)Nc3ccc(C(=O)N[C@H](C)c4ccc(F)cc4)cc32)c(C)c1NC(=O)[C@@H]1CCCNC1 [6r, (Z)‐3‐((3,5‐Dimethyl‐4‐((R)‐Piperidine‐3‐Carboxamido)‐1H‐Pyrrol‐2‐Yl)Methylene)‐N‐((R)‐1‐(4‐Fluorophenyl)Ethyl)‐2‐Oxoindoline‐5‐Carboxamide]			
